For one test, the system named is segmental femoral defect. The test can be described thus: Segmental femoral defect rat fracture model (Example 1). In kind it is in vivo. The following applies: for bone growth in the defects (weekly radiographic density of segmented bone defect) relative to control: FIG. 1, after four weeks of treatment; for bone growth in the defects (weekly radiographic density of segmented bone defect) relative to control / bone healing and fracture repair, treated versus control animals: subcutaneous daily; for radiographic density ratio of the segmented bone to the contralateral femur: FIG. 2, after six weeks of treatment, relative to control treated rats; for bone healing and fracture repair, treated versus control animals: radiography, sacrifice at 6 weeks. As for the experimental part: T. A. Einhorn et al. “The Healing of Segmented Bone Defects Induced by Demineralized Bone Matrix. A Radiographic and Biomechanical Study,” J. Bone Joint, 66:274-279 (1984.
Adult male Sprague-Dawley rats weighing about 300 grams were maintained on Laboratory Rodent Diet 5001 (PMI Feeds, St. Louis, Mo.) and water ad libitum. All rats received only water for 12 hours prior to surgery. The animals were anesthetized prior to surgery by IP injection with ketamine (80 mg/kg) and xylazine (5 mg/kg). A single dose of procaine penicillin was given intramuscularly for prophylaxis against infection.
A lateral approach to the femur was used and a pre-drilled high density polyethylene plate was fixed along the anterior cortex of the femur. During this placement the periosteum of the femur was extensively stripped. A […] non-critical sized segmental defect was created in the mid portion of the femur shaft. The wound was closed with nylon and chromic sutures.
Postoperatively, the rats were placed in cages with 48 hour post-operative access to food pellets. The animals were monitored at least once daily and animals displaying any signs of illness were examined and given appropriate therapy if necessary.
Rats were divided into groups as shown in Table 1 and either a control vehicle (saline) or a PTHrP analog as described herein was administered subcutaneously daily starting on post-operative day 1. Radiographic analyses were performed weekly. Animals were sacrificed at 6 weeks and compared by radiography.
Sedated rats were placed in the prone position with hindlimbs externally rotated. Serial radiographs of each femur (involved femur and contralateral femur) were taken weekly starting with postoperative week 1. An aluminium phantom device with known density values was included in each radiograph for calibration. Each radiograph was placed on a translumination board and a picture taken using a DCS 420 digital Kodak camera. These images were then transferred to a Gateway 2000 IBM compatible computer and digitized using image analysis software (Sigma Scan©). An outline of the defect was traced and the average density of the area of the osteotomy measured in treated animals relative to control animals. […] The average density of the osteotomy was also compared to the average density of the contralateral femur for each weekly reading. […] After sacrifice (6 weeks), the femurs (experimental and contralateral) were dissected free of soft tissue. Fine grain radiographs were taken of the femurs in the lateral plane. The osteotomy was considered united when there was osseous continuity of the femur across more than 25% of the cross sectional diameter of the defect.

In test [1] the test system is intramembraneous bone defect. The test can be described thus: Intramembraneous bone healing, drill hole defects in distal femur and proximal tibia (Example 3). In kind it is in vivo, rabbit. Particulars: for intramembraneous bone formation relative to vehicle treated animals: 2 or 10 μg/kg/day subcutaneous daily; for femoral defects healed / tibial defects healed: day 21. The source says: Rabbits were generally anesthesized and subjected to surgery to create four surface defects, one in each distal femur and one in each proximal tibia. A posterior lateral surgical incision measuring approximately 3 cm. was made to expose the distal lateral femoral condyle. Bone proximal to the knee joint was subperiosteally exposed and a 5 mm drill hole was made, keeping the drill bit cool by constant irrigation. The wound was irrigated with normal saline. Deep tissue was closed with a running 3-0 chronic suture followed by closure of the subticular layer with a running 3-0 nylon suture and three to four interrupted stainless steel sutures. A second 3 cm. incision was made over the medial proximal tibia and a 5 mm drill hole was made in the proximal medial tibia. The wound was closed as described previously. The entire procedure was repeated on the contralateral limb.
Stock solutions of PTHrP analog C, (MAP1-10)^22-31His^26hPTHrP(1-34)NH2, and PTHRP analog D, (MAP1-10)^22-31hPTHrP(1-34)NH2, at 800 μg/ml were prepared by sterile filtration through an 0.22 micron filter and diluted in vehicle to either 20 μg/ml or 100 μg/ml just before administration. Vehicle was 30 mg/ml mannitol, 30/mg/ml sucrose, 0.12 mg/ml Tween™ 80, 0.17 mg/ml acetic acid and 2.33 mg/ml sodium acetate trihydrate. PTHrP analogs at either 2 μg/kg/day or 10 μg/kg/day was administered daily by subcutaneous injection to the surgically treated animals.
Animals were X-rayed weekly for the duration of the study. Densitometric measurements were made using a transilluminating scanner and MetaMorph™ (Universal Imaging, West Chester, Pa.) software. Radiographs of the lower extremities were performed in internal and external rotation on post-operative day 10 and 21. The animals were sacrificed on post-operative day 30. At the end of the study, animals were euthanized by pentobarbital overdose, tissues were harvested from the left and right femurs and tibias were analyzed by x-ray and histological analysis.

The subject of a further test is ulnar osteotomy. The test can be described thus: Ulnar osteotomy model, corticosteroid induced delayed healing (Example 4). Format: in vivo, rabbit. The procedure: Adult male New Zealand White rabbits were used in all experiments. In Part I, ten rabbits were divided into two equal groups and in Part II, twenty rabbits were divided equally. Non critical sized (1 mm) defects were created bilaterally in each rabbit. From two months prior to surgery through six weeks post-operative, all rabbits received daily subcutaneous injections of either prednisone (0.15 mg/kg) in sterile water (experimental group) or sterile saline (control group). Beginning on the first post-operative day, the experimental group were administered daily sub cutaneious infections of PTHrP analog D (0.01 mg/kg), while the control group received injections of normal saline. In Part I, animals were sacrificed at six weeks after creation of the osteotomy. In Part II, animals were sacrificed once radiographic union was reached bilaterally, or in cases of non-union at ten weeks post-operative. In both sets of experiments, radiological intensity and healing area were analyzed every other week starting two weeks (Part I) or four weeks (Part II) post-operatively. Serial radiographs of the forelimbs were taken and digitized and the bone area was quantified using image analysis software (Sigma Scan Pro). Photodensitometry was used to quantitate the mineral content of the newly formed bone at sites of osteotomy and callus formation. After sacrifice, high resolution faxitron radiographs were taken of both limbs in the anteroposterior and lateral planes, allowing for analysis of fracture callus dimension and size.

The test system of a further test is fracture healing. Particulars: intermittent treatment; ovariectomized rats; Kim et al.; cited from earlier work.
[2] abbreviates: high dose group (10 μg/kg/day s.c.).
The mark [3] stands for this setting: low dose group (2 μg/kg/day s.c.), no complete healing in controls.

Results on six molecules are retold here after US6583114B2, “Fracture healing using pthrp analogs” (Roche Palo Alto LLC, priority 1997, dated 2003).

For “(MAP1-10)^22-31Ala^19hPTHrP(1-34)NH2 [PTHrP analog B]”, in the test on segmental femoral defect, the “bone growth in the defects (weekly radiographic density of segmented bone defect) relative to control” value is listed as “greater than in the control animals” and the “radiographic density ratio of the segmented bone to the contralateral femur” value is recorded as “increased bone density”.
Consider “(MAP1-10)^22-31His^26hPTHrP(1-34)NH2 [PTHrP analog C]”, for which, in the test on segmental femoral defect, the “bone growth in the defects (weekly radiographic density of segmented bone defect) relative to control” value is “greater than in the control animals” and the “radiographic density ratio of the segmented bone to the contralateral femur” value is reported as “increased bone density”. The “union of the defect in high resolution radiographs” value in the test on segmental femoral defect (FIG. 3, after treatment for six weeks, control defect remains non-united) is reported as “has healed”. In addition, the “intramembraneous bone formation relative to vehicle treated animals” value in test [1] is on record as “accelerated intramembraneous bone formation”.
As to “(MAP1-10)^22-31c[Lys^13, Asp^17]hPTHrP(1-34)NH2”, in the test on segmental femoral defect, the “bone healing and fracture repair, treated versus control animals” value is “accelerated bone healing and fracture repair”.
On to “(MAP1-10)^22-31hPTHrP(1-34)NH2 [PTHrP analog D]”, for which the “torsional strength (stiffness and maximum torque) versus vehicle-treated control limbs” value in the test on ulnar osteotomy (Part I, biomechanical) is recorded as “significantly greater”. In the test on ulnar osteotomy (Part I, six weeks), the “intensities at the osteotomy sites, anteroposterior and lateral faxitrons, treated versus control limbs” value is “significantly greater”; the “intensity of proximal and distal ulnar diaphyses, treated versus control limbs” value is “significantly greater”; the “intensity of the external calluses (lateral), treated versus control limbs” value is listed as “also greater”. The “limbs that achieved union” value in the test with ulnar osteotomy (Part I, six weeks, 0.01 mg/kg daily s.c., prednisone, two out of ten in vehicle controls, FIG. 5) is on record as “Nine out ten”. In addition, in the test with ulnar osteotomy (Part II, after sacrifice), the “area of the osteotomy versus vehicle control limbs” value is listed as “significantly smaller”. Besides, in the test with ulnar osteotomy (Part II, after sacrifice, p<0.05 at osteotomy site), the “radiographic intensity at the osteotomy site, ulnar diaphysis and callus area versus vehicle control limbs” value is recorded as “greater radiographic intensity”. In addition, the “radiographic intensity at the osteotomy site, external calluses and ulnar diaphyses versus control limbs” value in the test with ulnar osteotomy (Part II, four weeks, p<0.01 at osteotomy site) was “greater radiographic intensity”. In the test with ulnar osteotomy (Part II, four weeks, p<0.05), the “combined callus areas versus control limbs” value was “greater”. Further, in the test with ulnar osteotomy (Part II, six weeks), the “callus intensity or area versus control limbs” value is given as “no differences” and the “intensity at the osteotomy site versus control limbs, in vivo radiography” value is listed as “trend of increased intensity”. The union rate entry in the test with ulnar osteotomy (Part II, six weeks, radiographic union) is on record as “complete union rate”. For the same molecule, in test [1], the “intramembraneous bone formation relative to vehicle treated animals” value was “accelerated intramembraneous bone formation”. Moreover, in test [1] (at sacrifice (day 30), high dose, radiographic analysis, p<0.01 vs control (less than 10%)), the “tibial defects filled with mineralized tissue” value is “over 85%”. Further, the “percent fill of femoral defects versus control treated femoral defects” value in test [1] (at sacrifice, p<0.01) was “significant greater percent fill”. In test [1] (setting [2]), this molecule yielded a femoral defects healed of 50% and a tibial defects healed of 75%. In test [1] (setting [3]), the femoral defects healed came to 40% and the tibial defects healed was 40%.
For “(MAP1-10)^22-31hSer^34PTHrP(1-34)THIQ NH2”, in the test with segmental femoral defect, the “bone healing and fracture repair, treated versus control animals” value was “accelerated bone healing and fracture repair”.

B1: parathyroid hormone (protein, UniProt P01270 32-115, looked up)
Parathyroid hormone: SVSEIQLMHNLGKHLNSMERVEWLRKKLQDVHNFVALGAPLAPRDAGSQRPRKKEDNVLVESHEKSLGEADKADVNVLTKAKSQ
modifications: Parathyroid hormone recombinant
notes: Recombinant human (1-84) parathyroid hormone, per the cited Kim et al. titles
Turning to B1, the fracture healing entry in the test on fracture healing is given as “improves fracture healing”.
